We go through 21 compounds from PubChem BioAssay AID328 (DTP/NCI, 2004).

Each structure is given as a SMILES string. “And” between values parts separate entries of the source, which are not always exact repeats. Equal values may be shown once. Inconclusive results and toxic doses are left out.

The subject of this assay is BDF1 mice, P388 leukemia ip, median survival T/C. Kind of assay: NCI In Vivo Anticancer Drug Screen. Data for tumor model P388 Leukemia (intraperitoneal) in B6D2F1 (BDF1) mice. As to conditions: endpoint: median survival time, higher = longer survival. Put shortly:
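In tumour-bearing mice, survival after compound treatment is set against the vehicle group and given as a quotient.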

The mark [1] stands for this setting: dose: 12.5 mg/kg/injection, schedule: Q04DX003 (ip), vehicle: saline with Tween-80.
Where [2] appears, read: dose: 25.0 mg/kg/injection, schedule: Q04DX003 (ip), vehicle: saline with Tween-80.
Setting [3] is: dose: 50.0 mg/kg/injection, schedule: Q01DX009 (ip), vehicle: saline with Tween-80.
Setting [4] is: dose: 100.0 mg/kg/injection, schedule: Q01DX009 (ip), vehicle: saline with Tween-80.
[5] abbreviates: dose: 200.0 mg/kg/injection, schedule: Q01DX009 (ip), vehicle: saline with Tween-80.
Where [6] appears, read: dose: 100.0 mg/kg/injection, schedule: Q04DX003 (ip), vehicle: saline with Tween-80.
Setting [7] is: dose: 400.0 mg/kg/injection, schedule: Q04DX003 (ip), vehicle: saline with Tween-80.
Where [8] appears, read: dose: 200.0 mg/kg/injection, schedule: Q04DX003 (ip), vehicle: saline with Tween-80.
Setting [9] is: dose: 400.0 mg/kg/injection, schedule: Q01DX009 (ip), vehicle: saline with Tween-80.
The mark [10] stands for this setting: dose: 100.0 mg/kg/injection, schedule: Q04DX003 (ip), vehicle: saline.
Where [11] appears, read: dose: 200.0 mg/kg/injection, schedule: Q04DX003 (ip), vehicle: saline.
The mark [12] stands for this setting: dose: 300.0 mg/kg/injection, schedule: Q04DX003 (ip), vehicle: saline with Tween-80.
Setting [13] is: dose: 100.0 mg/kg/injection, schedule: Q04DX003 (ip), vehicle: Klucel (hydroxypropylcellulose) (HPC).
The mark [14] stands for this setting: dose: 200.0 mg/kg/injection, schedule: Q04DX003 (ip), vehicle: Klucel (hydroxypropylcellulose) (HPC).
Setting [15] is: dose: 50.0 mg/kg/injection, schedule: Q01DX005 (ip), vehicle: saline with Tween-80.

Turning to `O=[N+]([O-])c1ccc(N/N=C/CCl)c([N+](=O)[O-])c1`, the T/C by setting is: (dose: 6.25 mg/kg/injection, schedule: Q04DX003 (ip), vehicle: saline with Tween-80) 120 % of control; under setting [1], 120 % of control; (dose: 16.5 mg/kg/injection, schedule: Q04DX003 (ip), vehicle: saline with Tween-80) 118 % of control; under setting [2], 118 % of control.

Take `COc1cc2nc(C)n(C)c(=O)c2cc1OC`: the T/C was 101 % of control under setting [3], 99 % of control under setting [4] and 99 % of control under setting [5].

Regarding `COc1cccc(N2C(N)=NC(N)=NC2(C)C)c1`, the T/C reads like this: (dose: 9.37 mg/kg/injection, schedule: Q01DX009 (ip), vehicle: Klucel (hydroxypropylcellulose) (HPC)) 108 % of control; (dose: 18.75 mg/kg/injection, schedule: Q01DX009 (ip), vehicle: Klucel (hydroxypropylcellulose) (HPC)) 93 % of control.

Take `COc1ccc(/C=C2\CCCC3=C2N=C2SCC(=O)N2C3c2ccc(OC)cc2)cc1` (stereo unspecified): the T/C is 90 % of control under setting [6] and 90 % of control under setting [7].

As for `CCOc1ccc(C(=O)Nc2c(C)cc(C)cc2C)cc1`, the T/C under setting [6] is 96 % of control, the T/C under setting [8] is 112 % of control and the T/C under setting [7] is 104 % of control.

For `NC(N)=N/N=C(/c1ccccc1)c1ccc(F)cc1`, the T/C was 115 % of control (dose: 1.2 mg/kg/injection, schedule: Q01DX009 (ip), vehicle: Klucel (hydroxypropylcellulose) (HPC)); 104 % of control and 105 % of control (dose: 5.0 mg/kg/injection, schedule: Q01DX009 (ip), vehicle: Klucel (hydroxypropylcellulose) (HPC)); 95 % of control (dose: 5.0 mg/kg/injection, schedule: Q01DX009 (ip), vehicle: saline); 100 % of control and 109 % of control (dose: 10.0 mg/kg/injection, schedule: Q01DX009 (ip), vehicle: Klucel (hydroxypropylcellulose) (HPC)); 100 % of control (dose: 10.0 mg/kg/injection, schedule: Q01DX009 (ip), vehicle: saline); 112 % of control (dose: 20.0 mg/kg/injection, schedule: Q01DX009 (ip), vehicle: saline).

Turning to `CC(=O)Nc1ccc(C(=O)NN)cc1`, the T/C is 108 % of control under setting [4], 105 % of control under setting [5] and 97 % of control under setting [9].

As to `Nc1ncnc2c1ncn2C1CCCO1` (stereo unspecified), the T/C is 100 % of control under setting [3]; 109 % of control under setting [4]; 100 % of control under setting [10]; 109 % of control under setting [5]; 95 % of control under setting [11].

As to `COC(=O)CCc1ccc(NP(=O)(N2CC2)N2CC2)cc1`, the T/C (dose: 66.0 mg/kg/injection, schedule: Q01DX009 (ip), vehicle: saline with Tween-80) is 177 % of control and the T/C under setting [12] is 154 % of control.

`Fc1ccc(P(c2ccc(F)cc2)c2ccc(F)cc2)cc1`: the T/C by setting is: (dose: 3.12 mg/kg/injection, schedule: Q01DX009 (ip), vehicle: Klucel (hydroxypropylcellulose) (HPC)) 92 % of control; (dose: 6.25 mg/kg/injection, schedule: Q01DX009 (ip), vehicle: Klucel (hydroxypropylcellulose) (HPC)) 92 % of control; (dose: 12.5 mg/kg/injection, schedule: Q01DX009 (ip), vehicle: Klucel (hydroxypropylcellulose) (HPC)) 107 % of control; (dose: 25.0 mg/kg/injection, schedule: Q01DX009 (ip), vehicle: Klucel (hydroxypropylcellulose) (HPC)) 100 % of control; (dose: 50.0 mg/kg/injection, schedule: Q01DX009 (ip), vehicle: Klucel (hydroxypropylcellulose) (HPC)) 96 % of control; (dose: 50.0 mg/kg/injection, schedule: Q04DX003 (ip), vehicle: Klucel (hydroxypropylcellulose) (HPC)) 100 % of control. Further, the T/C is, setting by setting: under setting [13], 87 % of control; under setting [14], 95 % of control.

Consider `CCCNC(=O)Nc1cc(Cl)ccc1OC`, for which the T/C under setting [6] is 95 % of control and the T/C under setting [7] was 95 % of control.

As for `CCSC1(SCC)C(=O)OC2=C(CCCC2)C1N(C)C` (stereo unspecified), the T/C reads like this: under setting [3], 90 % of control; under setting [4], 103 % of control; under setting [5], 105 % of control.

Consider `C[N+]1(C)N=C([O-])N(c2ccccc2C(F)(F)F)C1=O`, for which the T/C by setting is: under setting [3], 87 % of control; under setting [4], 92 % of control.

Turning to `CCNC(=NC)c1ccc(NC(=O)c2ccc(C(=O)Nc3ccc(C(=NC)NCC)cc3)cc2)cc1`, the T/C is, setting by setting: (dose: 3.9 mg/kg/injection, schedule: Q01DX009 (ip), vehicle: saline with Tween-80) 118 % of control; (dose: 4.0 mg/kg/injection, schedule: Q01DX009 (ip), vehicle: saline with Tween-80) 179 % of control; (dose: 9.0 mg/kg/injection, schedule: Q01DX009 (ip), vehicle: saline with Tween-80) 109 % of control.

`CCN(c1ccccc1)c1ccc(C=O)cc1`: the T/C was 94 % of control under setting [13] and 100 % of control under setting [14].

For `CCN(/C=C/C=C(C#N)C#N)CC`, the T/C is, setting by setting: under setting [3], 109 % of control; under setting [4], 88 % of control.

As to `CC1(C)CC(=O)c2ccccc21`, the T/C is 99 % of control (dose: 25.0 mg/kg/injection, schedule: Q01DX009 (ip), vehicle: saline); 115 % of control (dose: 50.0 mg/kg/injection, schedule: Q01DX009 (ip), vehicle: saline); 102 % of control (dose: 50.0 mg/kg/injection, schedule: Q04DX003 (ip), vehicle: saline); 95 % of control (dose: 100.0 mg/kg/injection, schedule: Q01DX009 (ip), vehicle: saline); 100 % of control under setting [10]; 109 % of control under setting [11].

As for `CCOC(=O)C1Cc2ccccc2OC1=O` (stereo unspecified), the T/C by setting is: under setting [15], 105 % of control; (dose: 100.0 mg/kg/injection, schedule: Q01DX005 (ip), vehicle: saline with Tween-80) 100 % of control; (dose: 200.0 mg/kg/injection, schedule: Q01DX005 (ip), vehicle: saline with Tween-80) 91 % of control.

In the case of `O=Cc1nccn1Cc1ccccc1`, the T/C reads like this: (dose: 12.5 mg/kg/injection, schedule: Q01DX009 (ip), vehicle: saline with Tween-80) 116 % of control; under setting [1], 100 % of control; (dose: 25.0 mg/kg/injection, schedule: Q01DX009 (ip), vehicle: saline with Tween-80) 100 % of control; under setting [2], 103 % of control; under setting [3], 108 % of control; (dose: 50.0 mg/kg/injection, schedule: Q04DX003 (ip), vehicle: saline with Tween-80) 96 % of control. The T/C was 105 % of control under setting [4]; 106 % of control under setting [6]; 98 % of control under setting [5]; 101 % of control and 106 % of control under setting [8]; 103 % of control under setting [12]; 107 % of control under setting [9].

On to `c1ccc(Oc2c3ccccc3nc3ccccc23)cc1`, for which the T/C under setting [15] is 123 % of control.

On to `Clc1ccc(CSc2ncnc3nc[nH]c23)cc1`, for which the T/C reads like this: under setting [4], 100 % of control; under setting [5], 104 % of control.
